Measured values published in PMC3493588 (2012).

System: d(CCG)8C (KR-2) (DNA, single strand) CCGCCGCCGCCGCCGCCGCCGCCGC
Assay: tryptophan fluorescence quenching titration
Conditions: Na+ (0.01 M NaCl); 0.02 M Hepes, pH 7.5-7.7, 0.0001 M EDTA, 20 °C; half salt-reversal at 0.06 M Na+; weaker at higher NaCl

binding: yes
Substance: H-RWRWKL-NH2
